Biological target: récepteurs des benzodiazépines
Test: Benzodiazepine receptor affinity: [3H]flunitrazepam binding, modified method of Squires and Braestrup
Parameters: species or system rats
Details: concentration inhibiting by 50 % the specific binding of 0,6 nanomoles (3H) flunitrazépam; rat forebrain membrane preparations; read-out: CI50 (the source's name)
Source text: L'affinité des composés pour les récepteurs des benzodiazépines a été évaluée en utilisant un radioligand/^3H/flunitra- zépam et la méthode de Squires et Braestrup (Nature, 1977, 266,732) modifiée.
Les valeurs ci-dessus sont les concentrations nanomolaires du produit testé qui inhibent dans une proportion de 50 % la liaison spécifique de 0,6 nanomoles (^3H) flunitrazépam tant de préparations de membranes de cerveaux antérieurs de rats (CI50) nanomoles.

| Structure (SMILES) | IC50 [nM] |
| --- | --- |
| CCc1ccc2c(c1)c(OC)cc1nc(C(OC(C)=O)c3ccccc3)cn12 (stereo not shown) [Exemple 1] | 5000 |
| CCc1ccc2c(c1)c(OC)cc1nc(C(=O)c3ccccc3)c(Br)n12 [Exemple 2, (1-bromo 7-éthyl 5-méthoxyimidazo/1,2-a/quinoléin-2-yl)phénylméthanone] | 3200 |
| CCc1ccc2c(c1)c(OC)cc1nc(C(=O)c3ccccc3)c(Cl)n12 [Exemple 3, (1-chloro 7-éthyl 5-méthoxyimidazo/1,2-a/quinoléin-2-yl)phénylméthanone] | 975 |
| CCc1ccc2c(c1)c(O)cc1nc(C(=O)c3ccccc3)cn12 [Exemple 4, 2-benzoyl 7-éthylimidazo/1,2-a/quinoléin-501] | 430 |
| CCc1ccc2c(c1)c(OC)cc1nc(C(C)(O)c3ccccc3)cn12 (stereo not shown) [Exemple 5, 1-(7-éthyl 5-méthoxyimidazo/1,2-a/quinoléin-2-yl) 1-phényléthanol] | 8000 |
| CCc1ccc2c(c1)c(OC(C)=O)cc1nc(C(=O)c3ccccc3)cn12 [Exemple 6, Acétatede 2-benzoyl 7-éthylimidazo/1,2-a/quinoléin-2-vle] | 395 |
| C=C(c1ccccc1)c1cn2c(cc(OC)c3cc(CC)ccc32)n1 [Exemple 7, Chlorhydratede 7-éthyl 5-méthoxy 2-(1-phénylvinyl) imidazo/1,2-a/quinoléine] | 120 |
| CCc1ccc2c(c1)c(OC)c(C)c1nc(C(=O)c3ccccc3)cn12 [Exemple 8, (7-éthyl 5-méthoxy 4-méthylimidazo/1,2-a/quinoléin-2-yl)phénylméthanone] | 7 |
| CCc1ccc2c(c1)c(C)cc1nc(C(=O)c3ccccc3)cn12 [Exemple 9] | 250 |
| CCc1ccc2c(c1)c(OC)c(CC)c1nc(C(=O)c3ccccc3)cn12 [Exemple 10, (4,7-diéthyl 5-méthoxyimidazo/1,2-a/quinoléin-2-yl) phénylméthanone] | 135 |
